Data set [1] has as its target T1, Periplasmic serine endoprotease DegP (Escherichia coli (strain K12)) (UniProt P0C0V0).
T1 sequence (whole entry): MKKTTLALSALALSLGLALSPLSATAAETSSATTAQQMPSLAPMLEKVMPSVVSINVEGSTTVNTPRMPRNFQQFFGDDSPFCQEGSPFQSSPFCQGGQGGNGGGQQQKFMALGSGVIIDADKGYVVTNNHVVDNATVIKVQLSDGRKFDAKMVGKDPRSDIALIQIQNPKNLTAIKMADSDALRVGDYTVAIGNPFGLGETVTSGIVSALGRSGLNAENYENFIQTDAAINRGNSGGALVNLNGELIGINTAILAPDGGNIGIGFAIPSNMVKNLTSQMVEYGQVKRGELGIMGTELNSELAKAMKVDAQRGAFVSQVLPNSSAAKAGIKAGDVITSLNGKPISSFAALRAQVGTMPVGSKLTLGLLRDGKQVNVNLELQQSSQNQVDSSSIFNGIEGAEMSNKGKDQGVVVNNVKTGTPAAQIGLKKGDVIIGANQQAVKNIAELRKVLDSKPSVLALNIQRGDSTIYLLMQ
Kind of data set: Binding affinity to recombinant Escherichia coli DegP assessed as increase in fluorescence using H2-OPT as substrate at 1 uM by SDS-PAGE based gel fluorescence scanning analysis.

Data set [2] has as its target T2, Serine protease HTRA2, mitochondrial (Homo sapiens, UniProt O43464).
T2 sequence (O43464 whole entry): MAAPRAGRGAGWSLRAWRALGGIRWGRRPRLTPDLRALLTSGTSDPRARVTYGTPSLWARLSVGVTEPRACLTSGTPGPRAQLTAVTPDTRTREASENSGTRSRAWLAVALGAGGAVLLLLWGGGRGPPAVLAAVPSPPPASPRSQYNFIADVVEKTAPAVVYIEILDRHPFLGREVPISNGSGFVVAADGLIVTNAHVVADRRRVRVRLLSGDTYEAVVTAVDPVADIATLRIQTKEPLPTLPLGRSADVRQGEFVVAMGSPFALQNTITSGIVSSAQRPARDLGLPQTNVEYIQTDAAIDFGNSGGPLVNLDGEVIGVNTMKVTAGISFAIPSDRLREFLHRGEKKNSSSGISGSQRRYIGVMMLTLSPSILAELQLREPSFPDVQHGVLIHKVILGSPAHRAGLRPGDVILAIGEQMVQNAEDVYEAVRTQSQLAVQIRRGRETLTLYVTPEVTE
As to the kind of experiment: Inhibition of recombinant human HTRA2 using H2-OPT as substrate assessed as increase in fluorescence and measured for 2 hrs by fluorescent plate reader analysis.

The target of data set [3] is T3, Serine protease HTRA2, mitochondrial (Homo sapiens) (UniProt O43464).
T3 sequence (whole entry): T2 sequence (O43464 whole entry)
As to the kind of experiment: Binding affinity to recombinant human HTRA2 assessed as increase in fluorescence using H2-OPT as substrate at 1 uM by SDS-PAGE based gel fluorescence scanning analysis.

The target of data set [4] is T4, Serine protease HTRA1 (Homo sapiens, UniProt Q92743). Kind of data set: Inhibition of recombinant human HTRA1 using H2-OPT as substrate assessed as increase in fluorescence and measured for 2 hrs by fluorescent plate reader analysis.
Data set [5] concerns the target T3, Serine protease HTRA2, mitochondrial (Homo sapiens). As to the kind of experiment: Inhibition of recombinant human HTRA2 using H2-OPT as substrate assessed as increase in fluorescence at 1 uM and measured for 2 hrs by fluorescent plate reader analysis.
Data set [6] concerns the target T4, Serine protease HTRA1. Kind of data set: Inhibition of recombinant human HTRA1 using H2-OPT as substrate assessed as increase in fluorescence at 1 uM and measured for 2 hrs by fluorescent plate reader analysis.
Data set [7] addresses Albumin (Homo sapiens, UniProt P02768). Kind of data set: Binding affinity to human serum albumin assessed as appearance of fluorescent bands at 2 uM by SDS-PAGE based In-gel fluorescence analysis.
Data set [8] has as its target T4, Serine protease HTRA1. Kind of data set: Binding affinity to human HTRA1 in Amyloid-beta treated human U-87 MG cells assessed as appearance of fluorescent bands at 5 uM by SDS-PAGE based In-gel fluorescence analysis. Type of data set: cell-based.
In data set [9] the target is T4, Serine protease HTRA1. As to the kind of experiment: Binding affinity to recombinant human HTRA1 in human serum assessed as appearance of fluorescent bands at 2 uM by In-gel fluorescence analysis. The class given is cell-free.
The target of data set [10] is T4, Serine protease HTRA1. Kind of data set: Binding affinity to human HTRA1 in human U-87 MG cells assessed as appearance of fluorescent bands at 5 uM by SDS-PAGE based In-gel fluorescence analysis. The class given is cell-based.
The target in data set [11] is T1, Periplasmic serine endoprotease DegP (Escherichia coli (strain K12)). As to the kind of experiment: Binding affinity to Escherichia coli DegP assessed as appearance of fluorescent bands at 10 uM incubated for 2 hrs by SDS-PAGE based gel fluorescence scanning analysis.
Data set [12] has the same target. As to the kind of experiment: Binding affinity to Escherichia coli DegP assessed as appearance of fluorescent bands at 1 to 50 uM incubated for 1 hrs by SDS-PAGE based gel fluorescence scanning analysis. Conditions: dose 1-50 µM.
In data set [13] the target is Albumin (Bos taurus, UniProt P02769). Kind of data set: Binding affinity to bovine serum albumin in human U-87 MG cell culture media assessed as appearance of fluorescent bands at 5 uM by SDS-PAGE based In-gel fluorescence analysis. Conditions: cattle.
Data set [14] concerns the target T5, Neutrophil elastase (Homo sapiens) (UniProt P08246).
T5 sequence (whole entry): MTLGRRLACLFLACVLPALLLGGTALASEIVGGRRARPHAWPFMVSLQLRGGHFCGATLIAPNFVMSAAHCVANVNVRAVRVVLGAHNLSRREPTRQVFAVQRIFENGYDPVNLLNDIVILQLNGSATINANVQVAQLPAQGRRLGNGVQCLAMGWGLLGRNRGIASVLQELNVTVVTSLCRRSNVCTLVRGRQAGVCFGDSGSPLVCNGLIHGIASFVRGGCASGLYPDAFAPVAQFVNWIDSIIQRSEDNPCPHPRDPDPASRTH
Kind of data set: Binding affinity to recombinant human neutrophil elastase assessed as increase in fluorescence using H2-OPT as substrate at 1 uM by SDS-PAGE based gel fluorescence scanning analysis. Type of data set: single protein.

Data set [15] deals with Chymotrypsin (Homo sapiens) (UniProt Q99895+P17538+P40313+Q6GPI1). As to the kind of experiment: Binding affinity to recombinant human chymotrypsin assessed as increase in fluorescence using H2-OPT as substrate at 1 uM by SDS-PAGE based gel fluorescence scanning analysis. Type of data set: protein assay.
The next data set deals with Trypsin (Homo sapiens) (UniProt P07477+P07478+P35030). As to the kind of experiment: Binding affinity to recombinant human trypsin assessed as increase in fluorescence using H2-OPT as substrate at 1 uM by SDS-PAGE based gel fluorescence scanning analysis. The class given is protein assay.

pIC50: −log10 of the molar value. Calls of active or inactive are those of the source. No cut-off for these calls is given here. Some results are limits rather than exact numbers.

T4 sequence (Q92743 whole entry): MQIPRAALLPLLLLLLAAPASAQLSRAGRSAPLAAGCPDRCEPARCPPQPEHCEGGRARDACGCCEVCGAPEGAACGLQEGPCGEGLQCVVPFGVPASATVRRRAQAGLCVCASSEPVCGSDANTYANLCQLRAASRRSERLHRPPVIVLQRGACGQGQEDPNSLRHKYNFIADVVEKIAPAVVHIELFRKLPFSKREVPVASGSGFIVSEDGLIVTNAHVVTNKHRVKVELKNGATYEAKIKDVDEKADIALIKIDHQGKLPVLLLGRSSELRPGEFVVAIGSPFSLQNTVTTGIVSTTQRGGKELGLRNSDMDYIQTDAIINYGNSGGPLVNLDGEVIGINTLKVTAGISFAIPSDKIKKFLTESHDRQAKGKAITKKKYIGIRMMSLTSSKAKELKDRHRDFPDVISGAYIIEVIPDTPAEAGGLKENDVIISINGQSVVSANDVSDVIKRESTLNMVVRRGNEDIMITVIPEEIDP
Sequence of Albumin (Homo sapiens, UniProt P02768) (P02768 whole entry): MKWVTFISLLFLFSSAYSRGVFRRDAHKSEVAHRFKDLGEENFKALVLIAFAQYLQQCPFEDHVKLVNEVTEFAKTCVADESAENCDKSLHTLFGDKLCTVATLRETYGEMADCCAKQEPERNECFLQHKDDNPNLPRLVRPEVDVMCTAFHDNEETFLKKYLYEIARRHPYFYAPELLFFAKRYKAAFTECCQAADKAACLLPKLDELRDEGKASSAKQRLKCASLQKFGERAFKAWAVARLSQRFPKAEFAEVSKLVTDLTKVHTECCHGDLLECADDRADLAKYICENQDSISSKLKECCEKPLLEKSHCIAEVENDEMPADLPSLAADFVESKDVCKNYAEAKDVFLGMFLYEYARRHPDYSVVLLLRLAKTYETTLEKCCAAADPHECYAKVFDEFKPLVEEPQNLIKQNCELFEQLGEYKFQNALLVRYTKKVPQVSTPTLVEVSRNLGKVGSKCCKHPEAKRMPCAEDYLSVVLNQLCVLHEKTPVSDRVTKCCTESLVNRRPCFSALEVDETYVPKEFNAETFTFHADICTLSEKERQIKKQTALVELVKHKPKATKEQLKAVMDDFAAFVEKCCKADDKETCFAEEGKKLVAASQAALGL
Sequence of Albumin (Bos taurus, UniProt P02769) (P02769 whole entry): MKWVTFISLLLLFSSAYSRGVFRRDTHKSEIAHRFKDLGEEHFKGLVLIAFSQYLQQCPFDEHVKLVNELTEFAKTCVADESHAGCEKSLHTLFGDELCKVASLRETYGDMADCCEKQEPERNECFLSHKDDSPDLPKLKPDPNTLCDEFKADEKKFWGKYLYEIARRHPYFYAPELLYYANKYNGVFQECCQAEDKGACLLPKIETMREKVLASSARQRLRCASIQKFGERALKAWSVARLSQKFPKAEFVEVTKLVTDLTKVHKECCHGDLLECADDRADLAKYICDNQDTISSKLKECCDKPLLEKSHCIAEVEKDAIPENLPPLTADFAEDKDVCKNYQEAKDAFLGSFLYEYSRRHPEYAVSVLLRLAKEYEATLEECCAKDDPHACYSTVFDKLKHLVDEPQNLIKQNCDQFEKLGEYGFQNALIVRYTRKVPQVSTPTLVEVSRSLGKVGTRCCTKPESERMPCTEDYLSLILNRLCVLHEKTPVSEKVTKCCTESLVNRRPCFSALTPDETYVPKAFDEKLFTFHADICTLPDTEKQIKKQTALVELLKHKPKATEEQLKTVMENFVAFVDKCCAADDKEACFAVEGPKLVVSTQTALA

What is called pIC50 is the IC50 on a negative log10 scale, so that one unit is a factor of ten. With `CC(C)C[C@H](NC(=O)CCCCCNC(=O)c1ccc(C(=O)O)c(-c2c3ccc(=O)cc-3oc3cc(O)ccc23)c1)C(=O)N[C@@H](Cc1ccccc1)C(=O)N[C@@H](CC(C)(C)C)C(=O)N[C@@H](C(C)C)P(=O)(Oc1ccccc1)Oc1ccccc1`, the outcome in [1] was inactive. Also, in [2], the pIC50 is 5.09. For the same compound, the outcome in data set [3] was Active.

For `O=C1C(=Cc2ccc(-c3ccccc3[N+](=O)[O-])o2)C(=O)N(c2ccccc2)C(=S)N1c1ccccc1`, the negative-log IC50 (pIC50) is less than 4.30 on Serine protease HTRA1 [4] and 4.74 in data set [2].

The inhibition is the drop in the measured response relative to a control, in per cent. For `NCCc1ccc(S(=O)(=O)F)cc1`, the inhibition (in data set [5]; on Serine protease HTRA1 [6]) was 20% each time. The pIC50 (on Serine protease HTRA1 [4]; in data set [2]) was less than 3.00 throughout.

With `CC(C)[C@H](NC(=O)[C@H](CC1CC1)NC(=O)[C@H](CCCCN)NC(=O)[C@H](Cc1ccccc1)NC(=O)CCCCCNC(=O)c1ccc(C(=O)O)c(-c2c3ccc(=O)cc-3oc3cc(O)ccc23)c1)P(=O)(Oc1ccccc1)Oc1ccccc1`, the Activity entry at Albumin [7] is “Not Active”. Besides, the result (at Serine protease HTRA1 [8]; on Serine protease HTRA1 [9]; at Serine protease HTRA1 [10]; in [3]) was Active. In addition, the negative-log IC50 (pIC50) was 5.20 on Serine protease HTRA1 [4] and 5.08 in data set [2].

On to `CC[C@H](NC(=O)[C@H](CCCCN)NC(=O)[C@H](Cc1ccccc1)NC(=O)CCCCCNC(=O)c1ccc(C(=O)O)c(-c2c3ccc(=O)cc-3oc3cc(O)ccc23)c1)C(=O)N[C@@H](C(C)C)P(=O)(Oc1ccccc1)Oc1ccccc1`, for which the outcome in [1] and in data set [11] was Active. Besides, the pIC50 in [2] was 4.57. Further, in [12], the Activity entry is “Dose-Dependent Effect”.

As to `CC(C)C[C@H](NC(=O)CCCCCNC(=O)c1ccc(C(=O)O)c(-c2c3ccc(=O)cc-3oc3cc(O)ccc23)c1)C(=O)N[C@@H](Cc1ccccc1)C(=O)N[C@@H](CC1CC1)C(=O)N[C@@H](C(C)C)P(=O)(Oc1ccccc1)Oc1ccccc1`, the outcome in data set [1] was inactive. Besides, the outcome at Albumin [13] was Active. Besides, the pIC50 in data set [2] is 5.28. The outcome in data set [3] was Active.

With `CC(C)C[C@H](NC(=O)CCCCCNC(=O)c1ccc(C(=O)O)c(-c2c3ccc(=O)cc-3oc3cc(O)ccc23)c1)C(=O)N[C@@H](Cc1ccccc1)C(=O)N[C@@H](CC(C)C)C(=O)N[C@@H](C(C)C)P(=O)(Oc1ccccc1)Oc1ccccc1`, on Albumin [7], the Activity result is listed as “Not Active”. The result on Serine protease HTRA1 [9] and on Serine protease HTRA1 [10] was Active. In addition, the negative logarithm of the IC50 (pIC50) at Serine protease HTRA1 [4] is 5.70; in [2], 5.11.

As to `CC(C)C[C@H](NC(=O)[C@H](CCCCN)NC(=O)[C@H](Cc1ccc2ccccc2c1)NC(=O)CCCCCNC(=O)c1ccc(C(=O)O)c(-c2c3ccc(=O)cc-3oc3cc(O)ccc23)c1)C(=O)N[C@@H](C(C)C)P(=O)(Oc1ccccc1)Oc1ccccc1`, in data set [2], the pIC50 is 4.92. Moreover, the result in data set [3], in data set [14] and in data set [15] was Active.

Turning to `CC(C)[C@H](NC(=O)[C@H](CC(C)(C)C)NC(=O)[C@H](CCCCN)NC(=O)[C@H](Cc1ccccc1)NC(=O)CCCCCNC(=O)c1ccc(C(=O)O)c(-c2c3ccc(=O)cc-3oc3cc(O)ccc23)c1)P(=O)(Oc1ccccc1)Oc1ccccc1`, the result in data set [1] was inactive.

Consider `CC(C)C[C@H](NC(=O)CCCCCNC(=O)c1ccc(C(=O)O)c(-c2c3ccc(=O)cc-3oc3cc(O)ccc23)c1)C(=O)N[C@@H](Cc1ccccc1)C(=O)NC1(C(=O)N[C@@H](C(C)C)P(=O)(Oc2ccccc2)Oc2ccccc2)CC1`, for which the outcome (in data set [1]; at Trypsin (Homo sapiens); in data set [3]; in [14]; in [15]) was inactive.

Regarding `CC(C)[C@H](NC(=O)C1(NC(=O)[C@H](CCCCN)NC(=O)[C@H](Cc2ccccc2)NC(=O)CCCCCNC(=O)c2ccc(C(=O)O)c(-c3c4ccc(=O)cc-4oc4cc(O)ccc34)c2)CC1)P(=O)(Oc1ccccc1)Oc1ccccc1`, the outcome (in [1]; on Trypsin (Homo sapiens); in data set [3]; in data set [14]; in data set [15]) was inactive.

Regarding `CC(C)C[C@H](NC(=O)C1(NC(=O)[C@H](CCCCN)NC(=O)[C@H](Cc2ccccc2)NC(=O)CCCCCNC(=O)c2ccc(C(=O)O)c(-c3c4ccc(=O)cc-4oc4cc(O)ccc34)c2)CC1)P(=O)(Oc1ccccc1)Oc1ccccc1`, the result (in data set [1]; on Trypsin (Homo sapiens); in data set [3]; in data set [14]; in data set [15]) was inactive.

On to `CC(C)C[C@H](NC(=O)CCCCCNC(=O)c1ccc(C(=O)O)c(-c2c3ccc(=O)cc-3oc3cc(O)ccc23)c1)C(=O)N[C@@H](Cc1ccc2ccccc2c1)C(=O)N[C@@H](CC(C)C)C(=O)N[C@@H](C(C)C)P(=O)(Oc1ccccc1)Oc1ccccc1`, for which, in data set [1], the result was inactive. The pIC50 in [2] is 5.27. The result in [3], in data set [14] and in data set [15] was Active.

As for `CC(C)C[C@H](NC(=O)[C@H](CCCCN)NC(=O)[C@H](Cc1ccccc1)NC(=O)CCCCCNC(=O)c1ccc(C(=O)O)c(-c2c3ccc(=O)cc-3oc3cc(O)ccc23)c1)C(=O)N[C@@H](C(C)C)P(=O)(Oc1ccccc1)Oc1ccccc1`, the result in data set [1] was Active. Besides, the pIC50 in data set [2] is 4.62.

On to `CC[C@H](NC(=O)[C@H](CCCCN)NC(=O)[C@H](Cc1ccccc1)NC(=O)CCCCCNC(=O)c1ccc(C(=O)O)c(-c2c3ccc(=O)cc-3oc3cc(O)ccc23)c1)C(=O)N[C@@H](CC(C)C)P(=O)(Oc1ccccc1)Oc1ccccc1`, for which the result in data set [1] was inactive.

`CC(C)C[C@H](NC(=O)[C@H](CCCCN)NC(=O)[C@H](Cc1ccc2ccccc2c1)NC(=O)CCCCCNC(=O)c1ccc(C(=O)O)c(-c2c3ccc(=O)cc-3oc3cc(O)ccc23)c1)C(=O)N[C@@H](CC(C)C)P(=O)(Oc1ccccc1)Oc1ccccc1`: the result in data set [3], in data set [14] and in data set [15] was Active.

The values above are taken from ChEMBL document CHEMBL5257069, “Structure-activity relationship analysis of activity-based probes targeting HTRA family of serine proteases” (Bioorg Med Chem Lett, 2023).
